# Experimental data reported in patent publication US9725434B2, “Hydroxy-substituted orexin receptor antagonists” (MERCK SHARP & DOHME CORP., priority 2013, dated 2017).
# Columns and labels:
# [1] = target: human orexin-2 receptor (hOX2R) (Homo sapiens (Human), UniProt O43614); experiment: FLIPR Ca2+ Flux Assay, hOX2R; assay type: cell-based; conditions: CHO cells expressing hOX2R; agonist 70 pM Ala-6,12 orexin-A
# Description: In a typical experiment the OX1 and OX2 receptor antagonistic activity of the compounds of the present invention was determined in accordance with the following experimental method. For intracellular calcium measurements, Chinese hamster ovary (CHO) cells expressing the rat orexin-1 receptor or the human orexin-2 receptor, are grown in Iscove's modified DMEM containing 2 mM L-glutamine, […], 1% hypoxanthine-thymidine supplement, 100 U/ml penicillin, 100 μg/ml streptomycin and 10% heat-inactivated fetal calf serum (FCS). The cells are seeded at 20,000 cells/well into Becton-Dickinson black 384-well clear bottom sterile plates coated with poly-D-lysine. All reagents were from GIBCO-Invitrogen Corp. The seeded plates are incubated overnight at 37° C. and 5% CO2. Ala-6,12 human orexin-A as the agonist is prepared as a 1 mM stock solution in 1% bovine serum albumin (BSA) and diluted in assay buffer (HBSS containing 20 mM HEPES, 0.1% BSA and 2.5 mM probenecid, pH7.4) for use in the assay at a final concentration of 70 pM. Test compounds are prepared as 10 mM stock solution in DMSO, then diluted in 384-well plates, first in DMSO, then assay buffer. On the day of the assay, cells are washed 3 times with 100 μl assay buffer and then incubated for 60 min (37° C., 5% CO2) in 60 μl assay buffer containing 1 μM Fluo-4AM ester, 0.02% pluronic acid, and 1% BSA. The dye loading solution is then aspirated and cells are washed 3 times with 100 μl assay buffer. 30 μl of that same buffer is left in each well. Within the Fluorescent Imaging Plate Reader (FLIPR, Molecular Devices), test compounds are added to the plate in a volume of 25 μl, incubated for 5 min and finally 25 μl of agonist is added. Fluorescence is measured for each well at 1 second intervals for 5 minutes and the height of each fluorescence peak is compared to the height of the fluorescence peak induced by 70 pM Ala-6,12 orexin-A with buffer in place of antagonist. […] Alternatively, compound potency can be assessed by a radioligand binding assay (described in Bergman et. al. Bioorg. Med. Chem. Lett. 2008, 18, 1425-1430) in which the inhibition constant (Ki) is determined in membranes prepared from CHO cells expressing either the OX1 or OX2 receptor. The intrinsic orexin receptor antagonist activity of a compound which may be used in the present invention may be determined by these assays.
# (§1) Chinese hamster ovary (CHO) cells expressing the human orexin-1 receptor (hOX1R) or the human orexin-2 receptor (hOX2R) were grown in Iscove's modified DMEM containing 2 mM L-glutamine, […], 1% hypoxanthine-thymidine supplement, 100 U/ml penicillin, 100 μg/ml streptomycin and 10% heat-inactivated fetal calf serum (FCS). The cells were seeded at 20,000 cells/well into Becton-Dickinson black 384-well clear bottom sterile plates coated with poly-D-lysine. All reagents were from GIBCO-Invitrogen Corp. The seeded plates were incubated overnight at 37° C. and 5% CO2. Ala-6,12 human orexin-A, used as the agonist, was prepared as a 1 mM stock solution in 1% bovine serum albumin (BSA) and diluted in assay buffer (HBSS containing 20 mM HEPES, 0.1% BSA and 2.5 mM probenecid, pH7.4) for use in the assay at a final concentration of 70 pM. Test compounds were prepared as 10 mM stock solution in DMSO, then diluted in 384-well plates, first in DMSO, then assay buffer.
# On the day of the assay, cells were washed 3× with 100 μl assay buffer and then incubated for 60 minutes (37° C., 5% CO2) in 60 μl assay buffer containing 1 μM Fluo-4AM ester, 0.02% pluronic acid, and 1% BSA. The dye loading solution was then aspirated and cells were washed 3× with 100 μl assay buffer.
# [2] = target: human orexin-1 receptor (hOX1R) (Homo sapiens, UniProt O43613); experiment: FLIPR Ca2+ Flux Assay, hOX1R; assay type: cell-based; conditions: CHO cells expressing hOX1R; agonist 70 pM Ala-6,12 orexin-A
# Description: as §1
# On the day of the assay, cells were washed 3× with 100 μl assay buffer and then incubated for 60 minutes (37° C., 5% CO2) in 60 μl assay buffer containing 1 μM Fluo-4AM ester, 0.02% pluronic acid, and 1% BSA. The dye loading solution was then aspirated and cells were washed 3× with 100 μl assay buffer. 30 μl of that same buffer was left in each well. Within the Fluorescent Imaging Plate Reader (FLIPR, Molecular Devices), test compounds were added to the plate in a volume of 25 μl, incubated for 5 minutes, and then 25 μl of agonist was added. Fluorescence was measured for each well at 1 second intervals for 5 minutes, and the height of each fluorescence peak was compared to the height of the fluorescence peak induced by 70 pM of Ala-6,12 orexin-A with buffer in place of test compound.
# human orexin-2 receptor (hOX2R), sequence (O43614 whole entry): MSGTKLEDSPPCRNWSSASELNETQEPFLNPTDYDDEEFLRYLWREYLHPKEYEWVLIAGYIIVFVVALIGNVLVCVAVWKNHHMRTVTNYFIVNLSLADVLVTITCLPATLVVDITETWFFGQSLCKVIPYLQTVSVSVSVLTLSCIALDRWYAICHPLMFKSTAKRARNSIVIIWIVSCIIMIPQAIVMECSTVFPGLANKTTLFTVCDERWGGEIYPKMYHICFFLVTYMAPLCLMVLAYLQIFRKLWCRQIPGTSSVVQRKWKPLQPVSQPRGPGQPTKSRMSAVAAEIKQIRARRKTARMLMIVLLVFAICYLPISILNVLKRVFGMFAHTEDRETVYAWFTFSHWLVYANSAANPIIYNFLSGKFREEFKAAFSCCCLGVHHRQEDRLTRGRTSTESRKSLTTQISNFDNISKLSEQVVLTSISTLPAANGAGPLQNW
compound,measurement,setting,value
"C[C@@H]1CC[C@@H](Oc2cccc3c2CCC[C@]3(C)O)CN1C(=O)c1ccccc1-n1nccn1 [Example 30, (1S)-1-methyl-5-{[(3R,6R)-6-methyl-1-{[2-(2H-1,2,3-triazol-2-yl)phenyl]carbonyl}piperidin-3-yl]oxy}-1,2,3,4-tetrahydronaphthalen-1-ol]",IC50,[1],20 nM
same,IC50,[2],289 nM
"C[C@@H]1CC[C@@H](Oc2ccc3c(c2)C(C)(O)CC3)CN1C(=O)c1ccccc1-n1nccn1 (stereo partly drawn) [Example 33, 1-Methyl-6-{[(3R,6R)-6-methyl-1-{[2-(2H-1,2,3-triazol-2-yl)phenyl]carbonyl}piperidin-3-yl]oxy}-2,3-dihydro-1H-inden-1-ol]",IC50,[1],23 nM
same,IC50,[2],742 nM
"C[C@@H]1CC[C@@H](Oc2cccc(C(C)(O)C(F)F)c2)CN1C(=O)c1ccccc1-n1nccn1 (stereo partly drawn) [Example 36, 1,1-difluoro-2-(3-{[(3R,6R)-6-methyl-1-{[2-(2H-1,2,3-triazol-2-yl)phenyl]carbonyl}piperidin-3-yl]oxy}phenyl)propan-2-ol]",IC50,[1],18 nM
same,IC50,[2],7280 nM
"C[C@@H]1CC[C@@H](Oc2cccc(C(C)(C)O)c2)CN1C(=O)c1ccsc1-n1nccn1 [Example 37, 2-(3-{[(3R,6R)-6-Methyl-1-{[2-(2H-1,2,3-triazol-2-yl)thiophen-3-yl]carbonyl}piperidin-3-yl]oxy}phenyl)propan-2-ol]",IC50,[1],45 nM
same,IC50,[2],10000 nM
"(1R)-1-Methyl-6-{[(3R,6R)-6-methyl-1-{[2-(2H-1,2,3-triazol-2-yl)phenyl]carbonyl}piperidin-3-yl]oxy}-2,3-dihydro-1H-inden-1-ol [Example 34]",IC50,[1],112 nM
same,IC50,[2],1170 nM
"(1S)-1-Methyl-6-{[(3R,6R)-6-methyl-1-{[2-(2H-1,2,3-triazol-2-yl)phenyl]carbonyl}piperidin-3-yl]oxy}-2,3-dihydro-1H-inden-1-ol [Example 35]",IC50,[1],164 nM
same,IC50,[2],3350 nM
